Source: ChEMBL document CHEMBL2413073, “Efficient construction of novel D-ring modified steroidal dienamides and their cytotoxic activities” (Eur J Med Chem, 2013)
≈ marks a conversion by molar mass, not a printed value. One block for each molecule: values may come before it.

Experiments:
MGC-803 [1] = assay: Cell cycle arrest in human MGC803 cells assessed as accumulation at G2/M phase at 8 uM after 24 hrs by propidium iodide staining-based flow cytometry (reference value: 20.41%); type: functional
MGC-803 [2] = assay: Cell cycle arrest in human MGC803 cells assessed as accumulation at G2/M phase at 4 uM after 24 hrs by propidium iodide staining-based flow cytometry (reference value: 20.41%); type: functional
MGC-803 [3] = assay: Cell cycle arrest in human MGC803 cells assessed as accumulation at G2/M phase at 2 uM after 24 hrs by propidium iodide staining-based flow cytometry (reference value: 20.41%); type: functional
MGC-803 [4] = assay: Cell cycle arrest in human MGC803 cells assessed as accumulation at S phase at 8 uM after 24 hrs by propidium iodide staining-based flow cytometry (reference value: 26.67%); type: functional
MGC-803 [5] = assay: Cell cycle arrest in human MGC803 cells assessed as accumulation at S phase at 4 uM after 24 hrs by propidium iodide staining-based flow cytometry (reference value: 26.67%); type: functional
MGC-803 [6] = assay: Cell cycle arrest in human MGC803 cells assessed as accumulation at S phase at 2 uM after 24 hrs by propidium iodide staining-based flow cytometry (reference value: 26.67%); type: functional
MGC-803 [7] = assay: Cell cycle arrest in human MGC803 cells assessed as accumulation at G0/G1 phase at 8 uM after 24 hrs by propidium iodide staining-based flow cytometry (reference value: 43.45%); type: functional
MGC-803 [8] = assay: Cell cycle arrest in human MGC803 cells assessed as accumulation at G0/G1 phase at 4 uM after 24 hrs by propidium iodide staining-based flow cytometry (reference value: 43.45%); type: functional
MGC-803 [9] = assay: Cell cycle arrest in human MGC803 cells assessed as accumulation at G0/G1 phase at 2 uM after 24 hrs by propidium iodide staining-based flow cytometry (reference value: 43.45%); type: functional
MGC-803 [10] = assay: Cell cycle arrest in human MGC803 cells assessed as accumulation at G2/M phase after 24 hrs by propidium iodide staining-based flow cytometry; type: functional
MGC-803 [11] = assay: Induction of apoptosis in human MGC803 cells assessed as necrotic cells at 8 uM after 24 hrs by AnnexinV/FITC-propidium iodide staining-based flow cytometry (reference value: 0.2%); type: functional
MGC-803 [12] = assay: Induction of apoptosis in human MGC803 cells assessed as necrotic cells at 4 uM after 24 hrs by AnnexinV/FITC-propidium iodide staining-based flow cytometry (reference value: 0.2%); type: functional
MGC-803 [13] = assay: Induction of apoptosis in human MGC803 cells assessed as necrotic cells at 2 uM after 24 hrs by AnnexinV/FITC-propidium iodide staining-based flow cytometry (reference value: 0.2%); type: functional
MGC-803 [14] = assay: Induction of apoptosis in human MGC803 cells assessed as late apoptotic cells at 8 uM after 24 hrs by AnnexinV/FITC-propidium iodide staining-based flow cytometry (reference value: 1.2%); type: functional
MGC-803 [15] = assay: Induction of apoptosis in human MGC803 cells assessed as late apoptotic cells at 4 uM after 24 hrs by AnnexinV/FITC-propidium iodide staining-based flow cytometry (reference value: 1.2%); type: functional
MGC-803 [16] = assay: Induction of apoptosis in human MGC803 cells assessed as late apoptotic cells at 2 uM after 24 hrs by AnnexinV/FITC-propidium iodide staining-based flow cytometry (reference value: 1.2%); type: functional
MGC-803 [17] = assay: Induction of apoptosis in human MGC803 cells assessed as early apoptotic cells at 8 uM after 24 hrs by AnnexinV/FITC-propidium iodide staining-based flow cytometry (reference value: 8.9%); type: functional
MGC-803 [18] = assay: Induction of apoptosis in human MGC803 cells assessed as early apoptotic cells at 4 uM after 24 hrs by AnnexinV/FITC-propidium iodide staining-based flow cytometry (reference value: 8.9%); type: functional
MGC-803 [19] = assay: Induction of apoptosis in human MGC803 cells assessed as early apoptotic cells at 2 uM after 24 hrs by AnnexinV/FITC-propidium iodide staining-based flow cytometry (reference value: 8.9%); type: functional
MGC-803 [20] = assay: Induction of apoptosis in human MGC803 cells assessed as viable cells at 8 uM after 24 hrs by AnnexinV/FITC-propidium iodide staining-based flow cytometry (reference value: 89.6%); type: functional; details: MGC-803, 24 h, read-out: Activity
MGC-803 [21] = assay: Induction of apoptosis in human MGC803 cells assessed as viable cells at 4 uM after 24 hrs by AnnexinV/FITC-propidium iodide staining-based flow cytometry (reference value: 89.6%); type: functional; details: MGC-803, 24 h, read-out: Activity
MGC-803 [22] = assay: Induction of apoptosis in human MGC803 cells assessed as viable cells at 2 uM after 24 hrs by AnnexinV/FITC-propidium iodide staining-based flow cytometry (reference value: 89.6%); type: functional; details: MGC-803, 24 h, read-out: Activity
SMMC-7721 = assay: Cytotoxicity against human SMMC7721 cells after 72 hrs by MTT assay; type: functional, cell-based; details: SMMC-7721, 72 h
PC-3 = assay: Cytotoxicity against human PC3 cells after 72 hrs by MTT assay; type: functional, cell-based; details: PC-3, 72 h
MGC-803 [23] = assay: Cytotoxicity against human MGC803 cells after 72 hrs by MTT assay; type: functional, cell-based; details: MGC-803, 72 h
[24] = Cytotoxicity against human EC109 cells after 72 hrs by MTT assay; type: functional, cell-based; details: ECa-109, 72 h
MCF7 = assay: cells; details: Homo sapiens, MCF7, 72 h
Description: Cytotoxicity against human MCF7 cells after 72 hrs by MTT assay

[25] = Cytotoxicity against human MEL28 cells; type: functional, cell-based; details: SK-MEL-28
A549 = assay: Cytotoxicity against human A549 cells; type: functional, cell-based
HT-29 = assay: Cytotoxicity against human HT-29 cells; type: functional, cell-based
P388 = assay: Cytotoxicity against mouse P388 cells; type: functional, cell-based

IC50 (MCF7): 3.85 µM
Compound: CC(=O)O[C@H]1CC[C@@]2(C)C(=CC[C@@H]3[C@@H]2CC[C@]2(C)C(=C(/C#N)C(N)=O)/C(=C/c4ccc(Cl)cc4)C[C@@H]32)C1
Activity (MGC-803 [1]): 56.91%
Activity (MGC-803 [2]): 49.43%
Activity (MGC-803 [3]): 33.68%
Activity (MGC-803 [4]): 19.09%
Activity (MGC-803 [5]): 19.94%
Activity (MGC-803 [6]): 15.68%
Activity (MGC-803 [7]): 21.6%
Activity (MGC-803 [8]): 28.84%
Activity (MGC-803 [9]): 48.61%
Activity (MGC-803 [10]): Dose-dependent effect
Activity (MGC-803 [11]): 0.1%
Activity (MGC-803 [12]): 2%
Activity (MGC-803 [13]): 0.5%
Activity (MGC-803 [14]): 17.1%
Activity (MGC-803 [15]): 9.4%
Activity (MGC-803 [16]): 4.4%
Activity (MGC-803 [17]): 80.9%
Activity (MGC-803 [18]): 35.9%
Activity (MGC-803 [19]): 18.7%
viability at 8 µM (MGC-803 [20]): 1.9%
viability at 4 µM (MGC-803 [21]): 52.7%
viability at 2 µM (MGC-803 [22]): 76.3%
IC50 (SMMC-7721): 3.9 µM
IC50 (PC-3): 11.5 µM
IC50 (MGC-803 [23]): 1.54 µM
IC50 [24]: 5.56 µM

Compound: C=C1C[C@@H]2C/C=C/C(=O)C/C(C)=C\C=C\C(=O)O[C@H]([C@H](O)NC(=O)/C=C\C=C\C)C/C(C)=C/[C@H](C1)O2 [ZAMPANOLIDE]
IC50 [25]: 1 ng/mL (≈ 2.02 nM)
IC50 (A549): 1 ng/mL (≈ 2.02 nM)
IC50 (HT-29): 1 ng/mL (≈ 2.02 nM)
IC50 (P388): 1 ng/mL (≈ 2.02 nM)
